# Reference: US10399992B2, “Process for preparing AD-35” (Zhejiang Hisun Pharmaceutical Co., Ltd., priority 2016, dated 2019)
# Key:
# acetylcholinesterase = acetylcholinesterase (Homo sapiens, UniProt P22303); assay: inhibiting acetylcholinesterase in vitro; type: biochemical; settings: compared with donepezil
# Morris water maze test = type: in vivo; settings: compared with donepezil
# TNF-α = assay: rat model of Alzheimer's disease induced by Aβ25-35: TNF-α production and release; type: in vivo
# IL-1β = assay: rat model of Alzheimer's disease induced by Aβ25-35: IL-1β production and release; type: in vivo
# nerve cells = assay: rat model of Alzheimer's disease induced by Aβ25-35: toxicity of Aβ25-35 to nerve cells; type: in vivo
# [1] = chelation of transition metal ions in vitro; type: physicochemical
# [2] = Phase 1 Clinical Single Ascending Dose study (SAD); type: in vivo; settings: subjects; 90 mg in a single dose
# [3] = acute toxicity test in mice; settings: compared with donepezil
# Sequence of acetylcholinesterase (P22303 32-614): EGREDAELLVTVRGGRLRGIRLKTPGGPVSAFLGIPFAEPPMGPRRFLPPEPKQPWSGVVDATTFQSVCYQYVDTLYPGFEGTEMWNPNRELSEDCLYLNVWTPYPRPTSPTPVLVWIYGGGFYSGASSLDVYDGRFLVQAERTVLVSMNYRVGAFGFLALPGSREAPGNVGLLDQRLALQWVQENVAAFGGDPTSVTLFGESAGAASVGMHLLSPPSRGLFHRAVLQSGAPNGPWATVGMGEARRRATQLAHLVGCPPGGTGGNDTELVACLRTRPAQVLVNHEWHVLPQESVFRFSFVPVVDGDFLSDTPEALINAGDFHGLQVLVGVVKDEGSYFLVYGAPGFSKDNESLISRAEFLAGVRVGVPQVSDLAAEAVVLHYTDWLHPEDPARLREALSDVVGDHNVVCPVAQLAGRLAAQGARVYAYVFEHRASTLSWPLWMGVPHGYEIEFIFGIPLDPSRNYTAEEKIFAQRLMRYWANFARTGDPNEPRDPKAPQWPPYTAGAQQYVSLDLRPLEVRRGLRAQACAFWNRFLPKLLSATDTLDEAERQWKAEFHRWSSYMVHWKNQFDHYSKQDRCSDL
smiles,measurement,setting,value
"O=C1c2cc3c(cc2C2(CC2)N1CCC1CCN(Cc2ccccn2)CC1)OCO3 [AD-35, 6-[2-[1-(2-pyridylmethyl)-4-piperidinyl]ethyl]spiro[[1,3]dioxolo[4,5-f]isoindole-7,1′-cyclopropane]-5-one phosphate]",activity of inhibiting acetylcholinesterase in vitro relative to donepezil,acetylcholinesterase,about one-tenth of the activity of donepezil
same,efficacy in the Morris water maze test (improving memory and learning ability),Morris water maze test,comparable efficacy to that of donepezil
same,production and release of pro-inflammatory cytokine TNF-α,TNF-α,significantly inhibit
same,production and release of pro-inflammatory cytokine IL-1β,IL-1β,significantly inhibit
same,toxicity of Aβ25-35 to nerve cells,nerve cells,greatly reduces the toxicity of Aβ25-35 to nerve cells
same,ability to chelate transition metal ions such as Cu^2+,[1],exhibits a certain ability to chelate transition metal ions
same,adverse reactions,[2],did not develop adverse reactions
same,acute toxicity,[3],much less toxic than donepezil
